Reference: publication PMC8779995, “Metabolic Soft Spot and Pharmacokinetics: Functionalization of C-3 Position of an Eph–Ephrin Antagonist Featuring a Bile Acid Core as an Effective Strategy to Obtain Oral Bioavailability in Mice” (Pharmaceuticals, 2021)
Converted amounts (≈) assume the structure as drawn. “And” between values parts separate entries of the source, which are not always exact repeats. Identical values can stand only once. Like-named read-outs stand apart in the source and are kept apart here.

Legend:
[1] = set-up: method as in PMID 31891876, PMID 32927068; details: reference substrates; cited from earlier work
[2] = Phase II glucuronidation stability in MLM (+UDPGA); assay type: in vitro ADME, mouse; details: 1 μM
Procedure: Phase I metabolic stability assays on UniPR compounds were carried out in the presence of MLM (final protein concentration: 1 mg/mL) following published procedures. MLM were also employed in phase II glucuronidation assays employing UDPGA as activating co-factor.
(§1) S.1 In vitro phase I liver metabolism in MLM
(§2) In phase I metabolic stability assays, samples were prepared in 100 mM phosphate buffered saline (PBS), pH 7.4, containing a NADPH-generating system (5 mM MgCl2, 10 mM glucose-6-phosphate, 2 mM NADP+, 1.5 U/mL of glucose-6-phosphate dehydrogenase) and 1 mg/mL mouse liver […]
solutions in DMSO were added to start the reaction. Final DMSO percentage in samples was kept at 1%. At fixed time points (t = 0, 15, 30, 45, 60 min), single aliquots of reaction mixture were withdrawn, processed with two vol. of ACN containing 100 nM UniPR126, centrifuged (16000 g, 10 min, 4 °C) and the supernatant was directly injected in the HPLC-ESI-MS/MS system. […]
(§3) Within-run accuracy and precision were checked employing QC samples representative of the whole calibration range (HQC = 800 nmol/l; MQC = 400 nmol/l; LQC = 5 nmol/l) with n = 3 replicates at each QC concentration level. […] The acceptance criteria for accuracy were to get back-calculated concentrations ± 15% of the nominal ones, except for the LLOQ, which had to be ± 20%. The acceptance criteria for precision, expressed as relative standard

EphA2-Fc = EphA2-Fc (Mus musculus, UniProt Q03145); experiment: Surface plasmon resonance (SPR) binding to sensorchip-immobilized EphA2-Fc
Procedure: SPR measurements were performed on a BIAcore X100 instrument (GE-Healthcare, Milwaukee, WI, USA), using research-grade CM4 carboxyl-methyl-dextran-coated sensorchips (GE-Healthcare). SPR was exploited to measure changes in refractive index caused by the binding of UniPR500 to surface-immobilized EphA2. […] Binding parameters were calculated by the non-linear curve fitting software package BIA evaluation 3.2 using a single site model with correction for mass transfer. The dissociation constant (Kd) was either derived from the dissociation rate (koff)/association rate (kon) ratio (kinetics) or by steady-state analysis (being fitted with the proper form of Scatchard’s equation for the plot of the bound RU at equilibrium vs. the ligand concentration in solution).

[3] = cited from earlier work
[4] = n-octanol/buffer pH 7.4, cited from earlier work
[5] = Phase II sulfonation stability in mouse liver S9 fraction (+PAPS); assay type: in vitro ADME; details: mouse liver S9, 1 μM
Procedure: (§4) Phase II sulfonation assays were carried out in the presence of HLS9 or MLS9 fractions, as previously reported. The co-factor PAPS was incubated together with MgCl2, DTT, and UniPR compounds. The detailed experimental protocols for in vitro phase I and II metabolic stability assays are reported in Sections S.1–S.3 of the Supplementary Material. […] A 100 µL aliquot of the reaction mixture was extracted at the beginning of the experiment (t = 0) and at t = 180 min and processed as for the metabolic stability samples.
as §1, §2
solutions in DMSO were added to start the reaction. Final DMSO percentage in samples was kept at 1%. […]
as §3

[6] = Lipophilicity, distribution coefficient n-octanol/buffer pH 7.4; assay type: physicochemical
[7] = Phase I metabolic stability in mouse liver microsomes (MLM) with NADPH-generating system; assay type: in vitro ADME; details: for in vitro half-life (t1/2), phase I metabolism / half-life at 1 µM: NADPH-generating system; for half-life at 1 µM: pH 7.4, MLM, read-out: in vitro half-life (t1/2), phase I metabolism
[8] = Phase II sulfonation stability in human liver S9 fraction (+PAPS); assay type: in vitro ADME; details: pH 7.4, human liver S9, 1 μM, read-out: in vitro t1/2, sulfonation
Procedure: as §4
In vitro half-life (t1/2) in MLM and MLS9 fraction was calculated from the slope (k, Equation (1)) of the linear regression model obtained by fitting the log percentage UniPR compound remaining vs. time. in vitro t1/2 = −0.693/k (1) […]
S.1 In vitro phase I liver metabolism in MLM […]
as §3

[9] = In vivo pharmacokinetics in mice after single oral dose, plasma levels by HPLC-MS/MS; details: 30 mg/kg p.o.; for AUC(0-t): non-compartmental analysis
Procedure: Male mice (breed: C57BL/6J) were supplied by Charles River Labs, Milan, Italy. Mice were submitted to 12 h light-dark cycles under standard temperature and humidity conditions, with free access to water and chow. All experimental procedures were carried out following the European Community Council Directive 2010/63/UE, Italian regulations (DL 26/2014), and the ethical committee guidelines for animal research. […] Blood aliquots were withdrawn by tail puncture into heparinized tubes, centrifuged to collect plasma (2000× g, 10 min, 4 °C), and stored at −80 °C until analysis by HPLC-ESI-MS/MS. Details on the employed bioanalytical method and HPLC-ESI-MS/MS analytical conditions are given in Section S.4 of the Supplementary Material.
Microsoft Excel 365 (Microsoft Corp., Redmond, WA, USA) was employed for data analysis. GraphPad Prism v. 6.01 (GraphPad Software Inc., La Jolla, CA, USA) was employed for plotting graphs. The freeware software PCModFit V.6.7 (Add-on for Microsoft Excel) was employed for AUC calculations by non-compartmental analysis (NCA). […]
Calibration standards (CS, concentration range: 1000-2 nmol/L) were prepared by spiking blank […]
= 1%). Specificity of the method was checked comparing HPLC-MS/MS chromatograms of blank […]
Within-run accuracy and precision were checked employing QC samples representative of the whole calibration range (HQC = 800 nmol/l; MQC = 400 nmol/l; LQC = 5 nmol/l) with n = 3 replicates at each QC concentration level. Between-run accuracy and precision were checked employing QC samples at n=3 concentration levels in n = 3 analytical runs over three days. The acceptance criteria for accuracy were to get back-calculated concentrations ± 15% of the nominal ones, except for the LLOQ, which had to be ± 20%. The acceptance criteria for precision, expressed as relative standard

[10] = cited from earlier work; remark: listed apart in the source
[11] = mice, cited from earlier work
[12] = 24 h incubation at 37 °C; cited from earlier work
[13] = male, C57BL/6J, mouse, plasma, po

Sequence of EphA2-Fc (Q03145 26-538): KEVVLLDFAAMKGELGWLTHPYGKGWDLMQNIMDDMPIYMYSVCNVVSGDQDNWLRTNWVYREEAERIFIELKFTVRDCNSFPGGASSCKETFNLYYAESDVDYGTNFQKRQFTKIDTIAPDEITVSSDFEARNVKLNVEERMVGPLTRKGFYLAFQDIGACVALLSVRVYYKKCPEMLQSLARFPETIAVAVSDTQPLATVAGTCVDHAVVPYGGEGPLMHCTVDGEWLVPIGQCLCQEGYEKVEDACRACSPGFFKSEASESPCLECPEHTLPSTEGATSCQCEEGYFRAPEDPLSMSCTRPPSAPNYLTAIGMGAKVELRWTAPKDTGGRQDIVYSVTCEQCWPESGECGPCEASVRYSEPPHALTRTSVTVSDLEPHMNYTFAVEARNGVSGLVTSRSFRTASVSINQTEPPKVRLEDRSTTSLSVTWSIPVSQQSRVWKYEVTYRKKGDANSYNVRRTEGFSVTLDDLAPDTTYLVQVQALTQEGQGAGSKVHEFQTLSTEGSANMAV

## O=C(O)Cc1ccccc1Nc1c(Cl)cccc1Cl [diclofenac]
[1]
  t1/2 of known phase I CYP substrates: ~6 min

## C[C@H](CCC(=O)N[C@H](CC(=O)O)Cc1c[nH]c2ccccc12)[C@H]1CC[C@H]2[C@@H]3CCC4CC(=NO)CC[C@]4(C)[C@H]3CC[C@]12C (stereo partly drawn) [UniPR500, N-(3-hydroxyimino-cholan-24-oyl)-L-β-homotryptophan]
[2]
  percentage of intact compound at t = 60 min, glucuronidation: 79.5 ± 2.9%
EphA2-Fc
  concentration at which saturation binding is reached: around 25 μM
[3]; previously measured
  kinetic solubility: 30.6 ± 2.6 µg/mL and 30 µg/mL
[4]; evaluated in a previous paper
  Log Doct,7.4: 4.23 ± 0.11 and 4.23
[5]
  percentage remaining at t = 60 min, sulfonation: 81.0 ± 4.0%
[6]
  decrease of Log Doct,7.4 with respect to UniPR129: approximately 0.7 log unit
[7]; MLM, 1 μM
  in vitro half-life (t1/2), phase I metabolism: 60 min
[7]; mouse, liver microsomes, 1 μM
  half-life at 1 µM: 60.4 min
[8]
  half-life at 1 µM: 58.6 ± 6.1 min
[9]
  fold increase of AUC (0–6 h) with respect to UniPR129: 43 fold
[9]; [13]
  Tmax: 30 min
  AUC(0-t): 1.75 µM·h
[9]; male, C57BL/6J, mouse, plasma, po, mean ± S.E.M., n = 4, read-out: maximal plasma concentration (Cmax)
  Cmax: 609 ± 102 nM
[9]; male, C57BL/6J, mouse, plasma, po, mean ± S.E.M., read-out: plasma concentration at 1 h post-dose
  concentration at 1 h: 344 ± 29 nM
[9]; male, C57BL/6J, mouse, plasma, po, mean ± S.E.M., read-out: plasma concentration at 6 h post-dose
  concentration at 6 h: 237 ± 24 nM

## C[C@H](CCC(=O)N[C@H](CC(=O)O)Cc1c[nH]c2ccccc12)[C@H]1CC[C@H]2[C@@H]3CC[C@@H]4C[C@H](O)CC[C@]4(C)[C@H]3CC[C@]12C [UniPR129, N-(3α-hydroxy-5β-cholan-24-oyl)-L-β-homotryptophan]
[2]
  percentage of intact compound at t = 60 min, glucuronidation: 85.7 ± 2.7%
[3]; PBS buffer pH 7.4
  kinetic solubility: 18.3 ± 2.4 µg/mL (≈ 31.7 µM)
[3]; previously measured
  kinetic solubility: 18 µg/mL (≈ 31.2 µM)
[4]
  Log Doct,7.4: 4.90 ± 0.15
[4]; evaluated in a previous paper
  Log Doct,7.4: 4.90
[5]
  percentage remaining at t = 60 min, sulfonation: 86.2 ± 5.3%
[7]; MLM control without NADPH-generating system
  change in concentration in the absence of the NADPH-generating system: No decrease
[7]; MLM, 1 μM
  in vitro half-life (t1/2), phase I metabolism: 17 min
[7]; classification bands of ref 19
  classification of in vitro phase I intrinsic clearance: high clearance compound
[7]; mouse, liver microsomes, 1 μM
  half-life at 1 µM: 16.8 min
[7]; mouse, liver microsomes, pH 7.4, MLM, 1 μM, estimate from t1/2, read-out: phase I intrinsic clearance (CL'int)
  microsomal CLint at 1 µM: 41.4 µL/min/mg
[8]
  half-life at 1 µM: 61.1 ± 4.3 min
[10]
  plasma protein binding (%bound): 98%
[11]; 30 mg/kg oral dose
  plasma levels after oral administration: low nanomolar range
[11]; 30 mg/kg p.o.
  Tmax: 60 min
[11]; 30 mg/kg p.o., read-out: Cmax in plasma
  Cmax: 13.6 ± 1.2 nM
[9]; [13]
  AUC(0-t): 0.0406 µM·h
[12]
  percentage recovered in mouse plasma: 98.3 ± 9.5%
